According to patent US20110182982A1, “LIPOSOME TREATMENT OF VIRAL INFECTIONS” (University of Oxford, priority 2006, published 2011):

Legend:
ncp BVDV [1] = test: BVDV secretion from infected MDBK cells, real-time PCR; type: cell-based, bovine viral diarrhea virus; conditions: 750 nM, 3 days
Protocol: In a first study using the ncp strain of BVDV, NB-DNJ was added freely to the culture medium, so that final concentrations ranged between 0 and 750 nM. In separate incubations, NB-DNJ DCPP liposomes were added so that the final lipid concentration was 50 μM and final concentrations of NB-DNJ ranged between 0 and 750 nM. Experiments were carried out in duplicate in 6-well plates. The quantity of secreted BVDV viral particles was measured following 3 days of incubation. Virus secretion analysis was performed by quantitative PCR (real-time PCR) on viral RNA extracted from 500 μl of supernatant. Real-time PCR used primers directed against the ncp BVDV RNA where the forward primer sequence was […] (SEQ ID NO:1), and the reverse primer sequence was […] (SEQ ID NO:2). Results are expressed as the percentage of RNA copies present in treated samples as compared to the untreated control (=100% on the x axis).

ER glucosidases I and II = test: Free oligosaccharide (FOS) analysis as marker of glucosidase inhibition; type: cell-based, Chinese hamster
Excerpt: Free oligosaccharides (FOS) produced in the presence of free or DCPP liposomes encapsulating NB-DNJ are characterized and used as a cellular marker for glucosidase inhibition to measure the enhancement of drug activity due to intracellular delivery. […] In this experiment, the distribution of glucosylated FOS is used as a measure of glucosidase inhibition by NB-DNJ, where Glc1Mann-FOS and Glc2Mann-FOS species are a result of glucosidase II inhibition, and Glc3Mann-FOS a result of glucosidase I inhibition.
CHO cells were incubated in the presence of free NB-DNJ at the antiviral concentration of 0.5 mM, or with 100 μM of DCPP liposomes encapsulating NB-DNJ at final concentrations ranging 0-75 nM. Cells were left to incubate for 5 days and isolation of FOS was performed using cell homogenates standardized to 500 μg of total protein as described by Mellor et al (2004). Biochem J. 2004 Aug. 1; 381 (Pt 3): 861-866. Detection of FOS was performed by normal-phase HPLC following labeling of oligosaccharides by 2-aminobenzamide. The compositions of FOS were further characterized and determined by digestions with glycosidases including endoglycosidase H, jack bean α-mannosidase, and α-glucosidases I and II. The percentage of non-glucosylated and glucosylated oligomannose FOS (represented by Mann-FOS, Glc1Mann-FOS, Glc2Mann-FOS, and Glc3Mann-FOS) was calculated for each sample, and results are represented in Table 2. Results represent the mean±S.D. of four separate experiments.

[2] = system: HIV envelope protein gp120; test: 2G12 and b12 binding to gp120 expressed in CHO cells, capture ELISA; type: cell-based
Protocol: In the following example, the activity of NB-DNJ as measured by the inhibition of glycan processing on the HIV envelope protein, gp120, is determined following expression in CHO cells in the presence of free or DCPP liposome-encapsulated NB-DNJ.
CHO cells expressing a soluble form of HIV gp120 were incubated in the presence of free NB-DNJ with concentrations ranging between 0-5 mM, or with liposomes encapsulating NB-DNJ with final concentrations in the medium ranging between 0 and 750 nM. Cells were left to incubate for 5 days before cellular supernatant containing the treated gp120 was collected. To measure the inhibition of glycan processing on gp120 expressed in the presence of NB-DNJ (either free or in liposomes), the binding of the MAb 2G12 was determined by capture ELISA. 2G12 recognizes a cluster of mannose residues on the carbohydrate-rich surface of gp120, and loss of binding in the presence of NB-DNJ results from the retention of glucose on the oligomannose glycans that form the epitope. A loss of binding affinity, however, may also arise from a misfolding of the protein, and to distinguish between these two possibilities, the affinity of all samples for the neutralizing MAb, b12, is also measured. […] Soluble gp120 located in the cellular supernatant was captured in ELISA plates using the D7324 antibody (binds the C5 region of gp120) and treated with 10 μg/ml of either 2G12 or b12. The binding of both antibodies to NB-DNJ-treated samples was related to that for the untreated gp120, where data are expressed as percent binding and represent the mean±S.D. of triplicates from four separate experiments.

ncp BVDV [3] = test: Infectivity of secreted ncp BVDV on naive MDBK cells, immunofluorescence; type: cell-based, bovine viral diarrhea virus
Protocol: Using BVDV viral particles collected from the previous experiment (500 μl of supernatant containing secreted BVDV), the infectivity of secreted NB-DNJ-treated BVDV was determined by incubation with naïve MDBK cells for 3 days followed by immunofluorescent staining to identify BVDV proteins in infected cells. Cells were stained post-infection using an anti-BVDV NS2-NS3 monoclonal antibody, followed by a FITC-labelled secondary antibody. Experiments were performed in duplicate using 6-well plates. The percent viral infectivity was calculated by the number of infected cells, identified by the presence of non-structural BVDV proteins, divided by the total cell count determined by DAPI staining of cell nuclei. Results were also normalized to account for decreased or increased viral titres in each sample (results from BVDV secretion experiments).

[4] = 7.5 nM, liposome-mediated delivery

`CCCCN1C[C@H](O)[C@@H](O)[C@H](O)[C@H]1CO` [NB-DNJ, N-butyl-1,5-dideoxy-1,5-imino-D-glucitol] was tested, and the “decrease in number of secreted viral particles” value (ncp BVDV [1]; DCPP liposome-mediated delivery) was 2 fold, the “effect on number of secreted viral particles” value (ncp BVDV [1]; free delivery) was “no effect” and the “Distribution of total FOS Glc0Mann” value (ER glucosidases I and II; 0.75 pM in liposomes) was 70.7 ± 5.4%. For the same molecule, the “Distribution of total FOS Glc1Mann” value (ER glucosidases I and II; 0.75 pM in liposomes) was 18.7 ± 3.7%, the “Distribution of total FOS Glc2Mann” value (ER glucosidases I and II; 0.75 pM in liposomes) was 7.7 ± 1.1% and the “Distribution of total FOS Glc3Mann” value (ER glucosidases I and II; 0.75 pM in liposomes) was 2.9 ± 0.9%. For the same molecule, the “Distribution of total FOS Glc0Mann” value (ER glucosidases I and II; 7.5 pM in liposomes) was 70.4 ± 4.2%, the “Distribution of total FOS Glc1Mann” value (ER glucosidases I and II; 7.5 pM in liposomes) was 17.7 ± 1.3% and the “Distribution of total FOS Glc2Mann” value (ER glucosidases I and II; 7.5 pM in liposomes) was 8.3 ± 2.1%. The “Distribution of total FOS Glc3Mann” value (ER glucosidases I and II; 7.5 pM in liposomes) was 3.6 ± 1.3%, the “Distribution of total FOS Glc0Mann” value (ER glucosidases I and II; 75 pM in liposomes) was 51.7 ± 4.7% and the “Distribution of total FOS Glc1Mann” value (ER glucosidases I and II; 75 pM in liposomes) was 38.6 ± 4.1%. For the same molecule, the “Distribution of total FOS Glc2Mann” value (ER glucosidases I and II; 75 pM in liposomes) was 5.3 ± 1.8%, the “Distribution of total FOS Glc3Mann” value (ER glucosidases I and II; 75 pM in liposomes) was 4.4 ± 2.8% and the “Distribution of total FOS Glc0Mann” value (ER glucosidases I and II; 0.75 nM in liposomes) was 20.4 ± 2.7%. The “Distribution of total FOS Glc1Mann” value (ER glucosidases I and II; 0.75 nM in liposomes) was 66.9 ± 5.1%, the “Distribution of total FOS Glc2Mann” value (ER glucosidases I and II; 0.75 nM in liposomes) was 7.4 ± 3.3% and the “Distribution of total FOS Glc3Mann” value (ER glucosidases I and II; 0.75 nM in liposomes) was 5.3 ± 2.9%. The “Distribution of total FOS Glc0Mann” value (ER glucosidases I and II; 7.5 nM in liposomes) was 12.7 ± 2.6%, the “Distribution of total FOS Glc1Mann” value (ER glucosidases I and II; 7.5 nM in liposomes) was 50.0 ± 4.8% and the “Distribution of total FOS Glc2Mann” value (ER glucosidases I and II; 7.5 nM in liposomes) was 28.6 ± 2.7%. For the same molecule, the “Distribution of total FOS Glc3Mann” value (ER glucosidases I and II; 7.5 nM in liposomes) was 8.7 ± 1.7%, the “Distribution of total FOS Glc0Mann” value (ER glucosidases I and II; 75 nM in liposomes) was 13.2 ± 4.1% and the “Distribution of total FOS Glc1Mann” value (ER glucosidases I and II; 75 nM in liposomes) was 7.9 ± 2.8%. The “Distribution of total FOS Glc2Mann” value (ER glucosidases I and II; 75 nM in liposomes) was 26.6 ± 4.5%, the “Distribution of total FOS Glc3Mann” value (ER glucosidases I and II; 75 nM in liposomes) was 52.3 ± 6.2% and the “Distribution of total FOS Glc0Mann” value (ER glucosidases I and II; 0.5 mM free) was 11.9 ± 1.9%. The “Distribution of total FOS Glc1Mann” value (ER glucosidases I and II; 0.5 mM free) was 9.5 ± 0.9%, the “Distribution of total FOS Glc2Mann” value (ER glucosidases I and II; 0.5 mM free) was 31.7 ± 4.5% and the “Distribution of total FOS Glc3Mann” value (ER glucosidases I and II; 0.5 mM free) was 46.9 ± 4.8%. For the same molecule, the “gp120 binding to 2G12” value [2, 4] was 9.8±4.8%, the “gp120 binding to b12” value [2, 4] was 96.3±3.2% and the “gp120 binding to 2G12” value ([2]; 0.5-mM free in the medium) was 1.2±0.1%. For the same molecule, the “gp120 binding to b12” value ([2]; 0.5-mM free in the medium) was 100%, the “effect on BVDV infectivity” value (ncp BVDV [3]; 750 nM added freely to the medium) was “little to no effect” and the “naive MDBK cells infected by viral progeny” value (ncp BVDV [3]; 750 nM delivered via DCPP liposomes) was “less than 1%”. For the same molecule, the “antiviral effect vs controls” value (ncp BVDV [3]; 750 nM in DCPP liposomes) was “over 20 fold” and the “naive MDBK cells infected by viral progeny” value (ncp BVDV [3]; free, up to 750 nM) was “approximately 20%”.
